The text below walks through data of US8853237B2, “Naphthyridinone analogs as mGluR5 positive allosteric modulators” (Vanderbilt University, priority 2010, dated 2014).

For test [1], the target named is human mGluR5a receptor (Homo sapiens, UniProt P41594). The test can be described thus: Cell-based functional assay: Ca2+ mobilization (FDSS), potentiation of glutamate EC20 response. To be noted: for EC50: HEK cells (H10H or H12H) transfected with human mGluR5, in presence of EC20 glutamate, >10 uM estimated where no plateau but >20% increase; for Emax: maximum average response at a single concentration, as percent of maximal glutamate response. The protocol:
Table 1 below lists specific compounds as well as experimentally determined mGluR5 activity determined in a cell-based assay. The mGluR5 activity was determined using the metabotropic glutamate receptor activity assays in human embryonic kidney cells as described herein, wherein the human embryonic kidney cells were transfected with human mGluR5. The compounds in Table 1 were synthesized with methods identical or analogous to those shown herein. The column labeled “Rxn” and the data thereunder indicated in Table 1 refers to the Reaction Scheme number described above. The requisite starting materials were commercially available, described in the literature, or readily synthesized by one skilled in the art of organic synthesis.
Human mGluR5a cDNA in pCMV6-XL6 mammalian expression plasmid was purchased from OriGene Technologies, Inc. (catalogue number SC326357) and subcloned into pcDNA3.1(−). Human embryonic kidney (HEK)293A cells were then transfected with human mGluR5a pcDNA3.1(−) using LipofectAmine2000 (Invitrogen) and monoclones were selected and tested for functional response using a Ca^2+ mobilization assay. Monoclones were named for the species (“H” for human) plus the location on the plate (e.g. “10H”).
HEK cells transfected with the human mGluR5a receptor (H10H or H12H cell line) were plated at 15,000 cells/well in clear-bottomed poly-D-lysine-coated assay plates (BD Falcon) in glutamate-glutamine-free growth medium and incubated overnight at 37° C. and 5% CO2. Cell-lines used were either the H10H or H12H cell-lines expressing the human mGluR5 receptor. The following day, the growth medium was removed and the cells were washed with assay buffer containing 1× Hank's balanced salt solution (Invitrogen, Carlsbad, Calif.), 20 mM HEPES, 2.5 mM probenecid, pH 7.4 and left with 20 μL of this reagent. Following this step, the cells were loaded with calcium indicator dye, fluo-4 AM, to a final concentration of 2 μM and incubated for 40-45 min at 37° C. The dye solution was removed and replaced with assay buffer. Cell plates were held for 10-15 min at room temperature and were then loaded into the Functional Drug Screening System 6000 (FDSS 6000, Hamamatsu, Japan).
After establishment of a fluorescence baseline for about 3 seconds, the compounds of the present invention were added to the cells, and the response in cells was measured. 2.3 minutes later an EC20 concentration of the mGluR5 receptor agonist glutamate was added to the cells, and the response of the cells was measured for about 1.7 minutes. All test compounds were dissolved and diluted to a concentration of 10 mM in 100% DMSO and then serially diluted into assay buffer for a 2× stock solution in 0.6% DMSO; stock compounds were then added to the assay for a final DMSO concentration of 0.3% after the first addition to the assay well. Calcium fluorescence measures were recorded as fold over basal fluorescence; raw data was then normalized to the maximal response to glutamate. Potentiation of the agonist response of the mGluR5 receptor in the present invention was observed as an increase in response to submaximal concentrations of glutamate in the presence of compound compared to the response to glutamate in the absence of compound.
The concentration-response curves of compounds of the present invention, obtained in the presence of EC20 of mGluR5 receptor agonist glutamate to determine positive allosteric modulation, were generated using Microsoft Excel with IDBS XLfit add-ins. The raw data file containing all time points was used as the data source in the analysis template. This was saved by the FDSS as a tab-delimited text file. Data were normalized using a static ratio function (F/F0) for each measurement of the total 350 values per well divided by each well's initial value. Data was then reduced as to peak amplitudes (Max—Initial Min) using a time range that starts approximately 1 second after the glutamate EC20 addition and continues for approximately 40 seconds. […]

Test [2] concerns amphetamine-induced hyperlocomotion. The test can be described thus: Reversal of amphetamine-induced hyperlocomotion. Type of test: in vivo, male Sprague-Dawley rats. The conditions noted are these: 10 mg/kg, vehicle 20% HP-beta-CD; amphetamine 1 mg/kg sc; rat. The protocol:
Locomotor activity was assessed as mean distance traveled (cm) in standard 16×16 photocell testing chambers measuring 43.2 cm (Length)×43.2 cm (Width)×30.5 cm (Height) (Med Associates, St. Albans, Vt.). Animals were habituated to individual activity chambers for at least 30 min prior to drug administration. Following administration of drug or vehicle, activity was recorded for a […] time period. Data was expressed as the mean (±SEM) distance traveled recorded in 5 min intervals over the test period. The data were analyzed using repeated measures analysis of variance (ANOVA) followed by post-hoc testing using Dunnett's test, when appropriate. A difference was considered significant when p≦0.05. Amphetamine sulfate was obtained from Sigma (Cat#A5880-1G; St. Louis, Mo.) and 10 mg was dissolved in 10 ml of water. Test compound, 2-((3-fluorobenzyl)oxy)-7,8-dihydro-1,6-naphthyridin-5(6H)-one, was formulated in a volume of 10 ml with an amount of drug appropriate to the dosage indicated. […] At 60 min, all rats were injected subcutaneously with 1 mg/kg amphetamine or vehicle and then monitored for an additional 60 min. Animals are monitored for a total of 120 minutes. Data are expressed as changes in ambulation defined as total number of beam breaks per 5 min periods. The data for the dose-response studies were analyzed by a between-group analysis of variance. […]

Sequence of human mGluR5a receptor (P41594 21-1180 isoform P41594-2 limits assumed): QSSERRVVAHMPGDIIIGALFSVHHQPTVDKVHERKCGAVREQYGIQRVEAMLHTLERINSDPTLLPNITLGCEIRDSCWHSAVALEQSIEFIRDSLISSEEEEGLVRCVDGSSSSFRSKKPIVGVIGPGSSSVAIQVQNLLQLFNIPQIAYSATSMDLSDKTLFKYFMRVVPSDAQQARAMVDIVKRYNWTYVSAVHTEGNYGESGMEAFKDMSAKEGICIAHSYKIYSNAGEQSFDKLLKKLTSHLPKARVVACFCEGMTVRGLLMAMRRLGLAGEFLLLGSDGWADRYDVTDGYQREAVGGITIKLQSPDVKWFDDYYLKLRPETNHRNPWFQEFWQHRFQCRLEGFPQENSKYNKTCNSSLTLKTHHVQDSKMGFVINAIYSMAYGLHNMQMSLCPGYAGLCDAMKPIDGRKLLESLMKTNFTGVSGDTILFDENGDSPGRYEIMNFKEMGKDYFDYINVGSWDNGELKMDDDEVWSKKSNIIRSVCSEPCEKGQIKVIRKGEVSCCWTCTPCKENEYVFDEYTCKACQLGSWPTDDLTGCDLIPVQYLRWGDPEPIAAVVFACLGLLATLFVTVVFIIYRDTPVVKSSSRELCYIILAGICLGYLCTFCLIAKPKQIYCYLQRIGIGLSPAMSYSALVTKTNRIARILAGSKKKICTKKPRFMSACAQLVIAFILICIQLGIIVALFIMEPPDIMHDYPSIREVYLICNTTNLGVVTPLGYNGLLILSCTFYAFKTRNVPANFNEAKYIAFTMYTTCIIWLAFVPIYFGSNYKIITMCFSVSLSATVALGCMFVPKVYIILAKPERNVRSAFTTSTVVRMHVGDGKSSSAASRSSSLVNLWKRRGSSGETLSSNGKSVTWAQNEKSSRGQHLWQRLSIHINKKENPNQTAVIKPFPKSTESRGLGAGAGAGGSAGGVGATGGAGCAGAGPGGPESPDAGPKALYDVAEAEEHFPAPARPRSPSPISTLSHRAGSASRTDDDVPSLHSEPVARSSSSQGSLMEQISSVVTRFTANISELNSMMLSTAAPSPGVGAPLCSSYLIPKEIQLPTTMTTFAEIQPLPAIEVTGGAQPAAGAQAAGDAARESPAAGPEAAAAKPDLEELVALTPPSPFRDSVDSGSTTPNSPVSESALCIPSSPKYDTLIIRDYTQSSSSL

Take `O=C1c2cc(OCc3ccccc3)cnc2CCN1CC1CCC1` [compound 22]: in test [1], the half-maximal effective concentration (EC50) (usually the concentration that produces a half-maximal response) was 2760 nM and the Emax (commonly the greatest response seen or fitted, relative to the assay's reference) stood at 52%.

Take `O=C1c2ccc(OCc3ccccc3)nc2CCN1c1ccc(F)cc1` [2-(benzyloxy)-6-(4-fluorophenyl)-7,8-dihydro-1,6-naphthyridin-5(6H)-one]: the “apparent reversal of amphetamine-induced hyperlocomotion” value in test [2] worked out at 35%.

Take `O=C1NCCc2nc(OCc3cccc(F)c3)ccc21` [compound 1]: in test [1], the EC50 was 370 nM and the Emax is 71%.

Consider `O=C1c2cc(OCc3ccccc3)cnc2CCN1c1ccccn1` [compound 17], for which the EC50 in test [1] was over 30000 nM.

Take `O=C1c2ccc(OCc3ccccc3)nc2CCN1CC1CCC1` [compound 24]: in test [1], the half-maximal effective concentration (EC50) was 441 nM and the Emax came out at 49%.

Take `O=C1c2ccc(OCc3cccc(F)c3)nc2CCN1CC1CCC1` [compound 11]: in test [1], the 50% effective concentration (EC50) is 630 nM and the Emax was found to be 39%.

On to `O=C1c2cc(OCc3ccccc3)cnc2CCN1c1ccc(F)cc1F` [compound 18], for which, in test [1], the EC50 was over 10000 nM and the Emax came out at 67%.

With `O=C1NCCc2ncc(OCc3ccccc3)cc21` [compound 15], in test [1], the half-maximal effective concentration (EC50) is over 10000 nM and the Emax came out at 43%.

In the case of `O=C1c2ccc(COc3cccc(F)c3)nc2CCN1c1ccc(F)cn1` [compound 7], in test [1], the EC50 was 360 nM and the Emax was 66%.

Consider `O=C1c2ccc(OCc3cccc(F)c3)nc2CCN1c1cccc(F)c1` [compound 4], for which, in test [1], the EC50 was 980 nM and the Emax was found to be 41%.

As for `COc1ccc(CN2CCc3nc(OCc4cccc(F)c4)ccc3C2=O)cc1C(F)(F)F` [compound 3], in test [1], the 50% effective concentration (EC50) is over 10000 nM and the Emax was found to be 40%.

On to `O=C1c2ncc(COc3ccccc3)cc2CCN1c1ccc(F)cc1` [compound 8], for which, in test [1], the 50% effective concentration (EC50) was 730 nM and the maximal response (Emax) worked out at 76%.

For `O=C1NCCc2nc(OCc3ccccc3F)ccc21` [compound 10], in test [1], the half-maximal effective concentration (EC50) was 700 nM and the maximal effect (Emax) came out at 79%.

On to `O=C1c2ccc(COc3cccc(F)c3)nc2CCN1c1ccc(F)cc1` [compound 6], for which, in test [1], the 50% effective concentration (EC50) is 200 nM and the Emax came to 72%.

As for `O=C1NCCc2cc(COc3ccccc3)cnc21` [compound 25], in test [1], the 50% effective concentration (EC50) is over 30000 nM and the maximum response (Emax) is 43%.

Consider `CN1CCc2cc(COc3ccccc3)cnc2C1=O` [compound 26], for which, in test [1], the half-maximal effective concentration (EC50) is over 30000 nM and the maximum response (Emax) turned out to be 21%.

`O=C1c2ccc(OCc3cccc(F)c3)nc2CCN1Cc1cccc(Cl)c1F` [compound 2]: in test [1], the 50% effective concentration (EC50) is 4200 nM and the Emax came to 39%.

Consider `O=C1c2cc(OCc3ccccc3)cnc2CCN1c1ccc(F)cc1` [compound 21], for which, in test [1], the EC50 was over 10000 nM and the maximal effect (Emax) stood at 34%.

Consider `O=C1NCCc2nc(OCc3cccc(Cl)c3)ccc21` [compound 9], for which, in test [1], the EC50 was 190 nM and the Emax was determined as 55%.

Take `C[C@H](N1CCc2cc(COc3ccccc3)cnc2C1=O)C(C)(C)C` [compound 27]: in test [1], the EC50 was over 30000 nM and the Emax worked out at 15%.

With `O=C1c2cc(OCc3ccccc3)cnc2CCN1c1cccnc1` [compound 19], the concentration for a half-maximal effect (EC50) in test [1] is over 30000 nM.

With `O=C1c2ccc(OCc3cccc(F)c3)nc2CCN1c1ccc(F)cn1` [compound 5], in test [1], the EC50 is over 10000 nM and the Emax turned out to be 40%.

With `CN1CCc2ncc(COc3cccc(F)c3)cc2C1=O` [compound 13], in test [1], the concentration for a half-maximal effect (EC50) was over 10000 nM and the maximum response (Emax) stood at 44%.

Turning to `COc1ccc(CN2CCc3ncc(COc4cccc(F)c4)cc3C2=O)cc1` [compound 12], in test [1], the EC50 is 1600 nM and the Emax was found to be 64%.

For `Cc1cccc(N2CCc3ncc(OCc4ccccc4)cc3C2=O)n1` [compound 20], the EC50 in test [1] was over 30000 nM.

Turning to `O=C1c2ccc(OCc3ccccc3)nc2CCN1c1ccc(F)cc1` [compound 23], in test [1], the EC50 was 125 nM and the Emax turned out to be 66%.

With `COc1ccc(CN2CCc3ncc(OCc4ccccc4)cc3C2=O)cc1` [compound 14], in test [1], the EC50 was over 10000 nM and the Emax turned out to be 46%.
